# Reference: US9855249B2, “Isoxazole compounds and methods for the treatment of cystic fibrosis” (FLATLEY DISCOVERY LAB, LLC, priority 2014, dated 2018)
# System: CFTR mediated chloride current in Primary CF airway epithelial cells
# Assay: Equivalent current assay in primary CF airway epithelial cells (NAUC)
# Format: cell-based
# Conditions: 24 h treatment, stimulated with forskolin and VX770, normalized to positive control 3 μM VX809
# Protocol: Primary CF airway epithelial cells were obtained from the UNC Cystic Fibrosis Tissue Procurement and Cell Culture Core. The cells are grown at 37° C. in a Heracell 150i incubator using growth media (BEGM, Fischer). Cells were then transferred to differentiation media (ALI, UNC) for a minimum of 4 weeks on coated Costar snapwells. Two days before the Ussing assay the mucus on the apical surface of the cells was aspirated after incubating with 200 μL of differentiation Media for at least thirty (30) minutes. One day before the Ussing assay test compounds were added to the basolateral surface of the cells at various test concentrations dissolved in DMSO. Duplicate wells were prepared giving a n=3 or n=4 protocol.
# Cells were treated for 24 hours with various combinations and concentrations of the test articles, reference standard (3 μM VX809, positive control). Compounds stock solutions were prepared in DMSO and diluted 1/1000 into ALI media to their final assay concentration. Cells were treated with combination solutions (2 mL of each dilution) and incubated at 37° C. for 24 h.
# For the equivalent current assay, cells on four Transwell (24-well) plates were treated. Each Transwell plate was filled with 200 μl of HBS on the apical surface and 2 ml on the basolateral surface. Plates were placed horizontally in a heated mount at 37° C., and equilibrated for several minutes. Resting current was measured for 15 min and then blocked by the apical addition of 5 μM benzamil. After 20 min, 10 μM forskolin and 1 μM VX770 were added to both the apical and basolateral side to stimulate CFTR. An increase in chloride current is seen as an upward deflection of the trace. After another 30 min, CFTR-172 (a CFTR inhibitor, 2 μM) and/or bumetanide (20 μM) was added to block CFTR mediated chloride current.
# The raw data, current vs. time for the Ussing chamber (sampling interval: 10 s) and voltage vs. time and resistance vs. time for the equivalent current assay (sampling interval: 5 minutes) were transferred to Excel (Microsoft Office Professional, version 14.0.7106.5003) for analysis. CFTR specific current was measured as the average amplitude of the increase in current elicited upon addition forskolin and ending upon addition of the CFTR channel specific blocker CFTR-172. This average is equivalent to the sum of the average forskolin activated and the average VX770-potentiated currents. The average current measured in vehicle (0.1% DMSO) treated cells, Iv, was subtracted from the current for the test article, ITA, or from the corrector reference standard VX809 (3 μM ISTD. For replicate measurements, the average vehicle subtracted response for the test article, was normalized to the average vehicle subtracted […] response of the reference corrector VX809 (3 μM). INSC=(ITA−IV)(ave)/(ISTD−IV)(ave) (Equation 1)
# A second endpoint, for the equivalent current assay, evaluated was NAUC, the normalized area under the curve (AUC) measuring the response after addition of forskolin and VX770 to the time point right before the addition of the CFTR inhibitor. The AUC is effectively the average response multiplied by the duration of the response. The AUC of the test article, AUCTA was then corrected by subtracting the average vehicle response, AUCV,ave over the same time range, and normalized as for the inhibitor-sensitive current to the difference of the corrector reference standard VX809 (3 μM VX809r,ave and the vehicle response: NAUCTA=[AUCTA−AUCV,ave]/[AUCVx809r,ave−AUCV,ave](Equation 2).
# The normalized value for DMSO is 0.0 and for VX-809 alone is 1.0. Combinations of compounds with VX-809 that give normalized values greater than 1.0 show activity in the combination assay. A value of 2 means the test compound doubles the effect to VX-809 alone.
# Experiments were run with a minimum of n=4 replicates per concentration. […]
Compound,"NAUC (normalized area under the curve), Test Conc 3 uM","NAUC (normalized area under the curve), Test Conc 10 uM"
"CN1CCN(C(=O)CCNC(=O)c2cc(-c3ccc(F)cc3)no2)CC1 [Example 52, 3-(4-fluorophenyl)-N-(3-(4-methylpiperazin-1-yl)-3-oxopropyl)isoxazole-5-carboxamide]",++ (NAUC “++” refers to an observed NAUC 170-140% of positive control),+++ (NAUC “+++” refers to an observed NAUC >170% of positive control)
"O=C(NCCCCC(=O)N1CCC1)c1cc(-c2ccc(F)cc2)no1 [Example 53, N-(5-(azetidin-1-yl)-5-oxopentyl)-3-(4-fluorophenyl)isoxazole-5-carboxamide]",++ (NAUC “++” refers to an observed NAUC 170-140% of positive control),+++ (NAUC “+++” refers to an observed NAUC >170% of positive control)
"CN1CCN(C(=O)CCCCNC(=O)c2cc(-c3ccc(F)cc3)no2)CC1 [Example 54, 3-(4-fluorophenyl)-N-(5-(4-methylpiperazin-1-yl)-5-oxopentyl)isoxazole-5-carboxamide]",++ (NAUC “++” refers to an observed NAUC 170-140% of positive control),+++ (NAUC “+++” refers to an observed NAUC >170% of positive control)
"O=C(NCCCCC(=O)N1CCC1)c1cc(-c2ccccc2)no1 [Example 55, N-(5-(azetidin-1-yl)-5-oxopentyl)-3-phenylisoxazole-5-carboxamide]",++ (NAUC “++” refers to an observed NAUC 170-140% of positive control),+++ (NAUC “+++” refers to an observed NAUC >170% of positive control)
CN1CCN(C(=O)CCCCNC(=O)c2cc(-c3ccccc3)no2)CC1 [Example 59],+++ (NAUC “+++” refers to an observed NAUC >170% of positive control),+++ (NAUC “+++” refers to an observed NAUC >170% of positive control)
"O=C(NCCC(=O)N1CCC1)c1cc(-c2ccccc2)no1 [Example 60, N-(3-(azetidin-1-yl)-3-oxopropyl)-3-phenylisoxazole-5-carboxamide]",+++ (NAUC “+++” refers to an observed NAUC >170% of positive control),+++ (NAUC “+++” refers to an observed NAUC >170% of positive control)
CN1CCN(C(=O)CCNC(=O)c2cc(-c3ccccc3)no2)CC1 [Example 63],+++ (NAUC “+++” refers to an observed NAUC >170% of positive control),+++ (NAUC “+++” refers to an observed NAUC >170% of positive control)
